Values of other authors in patent US11096902B1, “Transdermal film formulations and methods of use” (King Abdulaziz University, priority 2021, dated 2021).

Conditions: oral, with food

reduction of systemic availability by concomitant intake of food: 25%
Compound: CC(C)c1c(C(=O)Nc2ccccc2)c(-c2ccccc2)c(-c2ccc(F)cc2)n1CC[C@@H](O)C[C@@H](O)CC(=O)[O-].CC(C)c1c(C(=O)Nc2ccccc2)c(-c2ccccc2)c(-c2ccc(F)cc2)n1CC[C@@H](O)C[C@@H](O)CC(=O)[O-].[Ca+2] [ATC, Atorvastatin calcium]
